# Laboratory results from ChEMBL document CHEMBL4673314, “Stabilization Strategies for Linear Minigastrin Analogues: Further Improvements via the Inclusion of Proline into the Peptide Sequence” (J Med Chem, 2020).
# Non-standard residues stand in square brackets, D forms with d. Residues, ends and D or L forms follow the SMILES beside them. *: point of attachment. DOTA = O=C(O)CN1CCN(CC(=O)O)CCN(CC(=O)*)CCN(CC(=O)O)CC1; 1Nal = N[C@@H](Cc1cccc2ccccc12)C(=O)O; NMeNle = CCCC[C@H](NC)C(=O)O
# Experiment: Retention time of the compound by HPLC method
# Format: physicochemical
row,Retention_time [min],SMILES
1,16.8,CCCC[C@@H](C(=O)N[C@@H](CC(=O)O)C(=O)N[C@@H](Cc1cccc2ccccc12)C(N)=O)N(C)C(=O)[C@H](Cc1c[nH]c2ccccc12)NC(=O)[C@@H]1CCCN1C(=O)[C@H](Cc1ccc(O)cc1)NC(=O)[C@H](C)NC(=O)[C@@H](CCC(=O)O)NC(=O)CN1CCN(CC(=O)O)CCN(CC(=O)O)CCN(CC(=O)O)CC1 ({DOTA}-[dE]AYPW[NMeNle]D[1Nal]-NH2)
2,16.9,CCCC[C@@H](C(=O)N[C@@H](CC(=O)O)C(=O)N[C@@H](Cc1cccc2ccccc12)C(N)=O)N(C)C(=O)[C@H](Cc1c[nH]c2ccccc12)NC(=O)CNC(=O)[C@H](Cc1ccc(O)cc1)NC(=O)[C@@H]1CCCN1C(=O)[C@@H](CCC(=O)O)NC(=O)CN1CCN(CC(=O)O)CCN(CC(=O)O)CCN(CC(=O)O)CC1 ({DOTA}-[dE]PYGW[NMeNle]D[1Nal]-NH2)
3,16.9,CCCC[C@@H](C(=O)N[C@@H](CC(=O)O)C(=O)N[C@@H](Cc1cccc2ccccc12)C(N)=O)N(C)C(=O)[C@H](Cc1c[nH]c2ccccc12)NC(=O)CNC(=O)[C@@H]1CCCN1C(=O)[C@H](Cc1ccc(O)cc1)NC(=O)[C@@H](CCC(=O)O)NC(=O)CN1CCN(CC(=O)O)CCN(CC(=O)O)CCN(CC(=O)O)CC1 ({DOTA}-[dE]YPGW[NMeNle]D[1Nal]-NH2)
